From PubChem BioAssay AID1339 (NMMLSC, 2008)

Biological target: Ras-related C3 botulinum toxin substrate 1 (Homo sapiens) (UniProt P63000)
Test: activated Rac1 mutant nucleotide-binding inhibitors – biochemical, multiplex, GST-Rac1 beads, Bodipy-FL-GTP, flow cytometry, dose response (AID 1339)

SMILES | EC50 [µM]
CNC(=S)N=Nc1c(O)[nH]c2ccccc12 | 91.6
CCOC(=O)c1cc([N+](=O)[O-])c([N+](=O)[O-])cc1NC(C)=O | 31.5
COC(=O)c1cccnc1SCCc1ccccc1 | 36.6
COc1ccccc1NCc1sc(C(=O)O)cc1C | 4.26
Cc1ccc(C(C)C)c(OCCSc2nc3ccccc3n2CC(=O)O)c1 | 33.5
CC(=O)c1c(C)[nH]c(C(=O)N2CCc3ccccc3C2)c1C | 2.53
O=C(O)c1ccccc1Sc1ncnc2sc3c(c12)CCC3 | 1.08
CS(=O)(=O)c1ccc(C(=O)OCC(=O)NC(=O)C2CCCCC2)cc1[N+](=O)[O-] | 43.2
CCc1ccc(NS(=O)(=O)c2ccc3[nH]cc(C(=O)N4CCc5ccccc54)c(=O)c3c2)cc1 | 20.6
Cc1ccccc1C(=O)Nc1ccc2c(C#N)c3nc4ccccc4nc3n2c1 | 0.889
O=C(C#Cc1ccccc1)c1cccc([N+](=O)[O-])c1 | 23.5
COc1ccccc1OCCn1cc(C(=O)O)c2ccc(Cl)cc21 | 1.75
Cc1cc(C(=O)Oc2ccccc2C(=O)O)c(C)o1 | 0.665
CC(=O)c1ccc(C#CC(=O)c2ccc([N+](=O)[O-])cc2)cc1 | 1.22
O=C(O)c1cc(Sc2ccc(F)cc2)nc2ccccc12 | 46.8
O=C(O)c1cc(Sc2ccc(Cl)cc2)nc2ccccc12 | 69.4
O=C(Nc1nnc(-c2ccc3c(c2)OCCO3)o1)c1ccc(Cc2ccccc2)cc1 | 10.2
Cc1ccc(Nc2cc(C(=O)O)c3ccccc3n2)cc1C | 5.56
OC(CNCCc1ccc(Cl)cc1)COc1ccc2ccccc2c1 (stereo not given) | 39
O=C(C#Cc1ccc(F)cc1)c1ccc([N+](=O)[O-])cc1 | 3.92
CSc1ccc(/C=N/NC(=O)c2cc(O)cc(O)c2)cc1 | 55.4
COc1cccc(CNCc2sc(C(=O)O)cc2C)c1 | 25.9
CCCOc1ccc(OCCSc2nc3ccccc3n2CC(=O)O)cc1 | 35.6
Cc1cc(NC(=O)CSc2nc(-c3ccccc3)c(C#N)c(=O)[nH]2)no1 | 12.9
CCOC(=O)c1c(NC(=O)/C=C/c2ccc3c(c2)OCO3)sc(C)c1CC | 30.1
CCOc1ccc(/C=C2\SC(N3CCc4ccccc4C3)=NC2=O)cc1 | 10.6
CC(=O)Nc1cccc(C#CC(=O)c2ccc([N+](=O)[O-])cc2)c1 | 14.2
Cc1ccc(C)c(OCCn2cc(C(=O)O)c3ccccc32)c1 | 0.222

SMILES | EC50 [µM]
COc1ccc(Cl)cc1NCc1sc(C(=O)O)cc1C | 2.19
Cc1cc(OCCSc2nc3ccccc3n2CC(=O)O)ccc1Cl | 25.1
Cc1nn(Cc2ccccc2)c(Cl)c1C(=O)O | 21.7
Cc1ccc(C(C)C)c(OCCn2cc(C(=O)O)c3ccccc32)c1 | 0.635
O=C(CSc1ncnc2scc(-c3ccccc3)c12)N1CCN(Cc2ccc3c(c2)OCO3)CC1 | 61.1
O=C(C#Cc1ccccc1)c1ccc([N+](=O)[O-])cc1 | 6.48
Cc1cc(C)c(C)c(C(=O)c2ccccc2C(=O)O)c1C | 1.52
CC(C)(C)C#CC(=O)c1ccc([N+](=O)[O-])cc1 | 65.1
Cc1ccc(-n2c(-c3cnccn3)n[nH]c2=S)c(Br)c1 | 28
COc1ccc(C(=O)Nc2cc(Cl)ccc2C(=O)O)cc1 | 22.1
O=C(c1nnsc1S(=O)(=O)c1ccc(Cl)cc1)N1CCOCC1 | 13.7
O=C(O)c1ccccc1NCc1c(Cl)cccc1Cl | 34.1
O=C(O)/C=C/c1cn(Cc2ccccc2)nc1-c1cccs1 | 1.94
COc1cc(C(=O)OCC(=O)Nc2ccc3c(c2)OC(F)(F)O3)ccc1OCc1c(C)noc1C | 14.2
N#Cc1c(-c2ccccc2)nc(SCC(=O)Nc2ccccc2)[nH]c1=O | 29.5
Cc1ccc(SC(CC(=O)c2ccc(C(C)(C)C)cc2)C(=O)O)cc1 (stereo not given) | 12.3
Cc1ccccc1OCCn1c(C)c(C(=O)O)c2ccccc21 | 0.625
O=[N+]([O-])c1cc2oc3c(c2c(C=NCc2ccccc2)c1O)CCCC3 | 5.79
Cc1cc(C(=O)Cn2nc(C(=O)O)c3ccccc3c2=O)c(C)n1-c1ccc(OC(F)F)cc1 | 3.55
O=C(O)c1cn(CCOc2ccccc2)c2ccccc12 | 0.857
COc1ccc(C(=O)c2c(O)cc(-c3ccc(OC)cc3)oc2=O)cc1 | 3.57
Cc1cc(C)cc(OCCSc2nc3ccccc3n2CC(=O)O)c1 | 23.6
COc1ccc(OC)c(-c2c3cc(O)c(=O)cc-3oc3cc(O)c(O)cc23)c1 | 0.28
COc1ccccc1OCc1cccc(C(=O)O)c1 | 9.53
COc1cccc(NC(=O)COC(=O)/C=C/c2ccc(Cl)cc2Cl)c1 | 13.3
CCN(CC)c1ccc2cc(-c3nc(-c4ccc(OC)cc4)cs3)c(=O)oc2c1 | 0.553
CCn1nc(C(=O)OCC(=O)c2cc(C)n(Cc3cccs3)c2C)c2ccccc2c1=O | 45.6
